Results as given in patent publication US8957032B2, “Inhibition of gliadin peptides” (Alba Therapeutics Corporation, priority 2008, dated 2015).
Ends that are not written are not given here. * marks the point of attachment. FITC = O=C1OC2(c3ccc(O)cc3Oc3cc(O)ccc32)c2ccc(NC(=S)*)cc21

Tests used:
[1] = system: CaCO2 cell monolayer; test: Permeability of a CaCO2 cell monolayer to a gliadin fragment; type: cell-based
Description: (§1) The inventors have discovered that peripheral blood mononuclear cells (PBMCs) secrete signals that increase epithelial monolayer permeability on response to stimulation with lipopolysaccharide […] and pepsin/trypsin treated gliadin (PTG). These secreted signals are present in PBMC culture supernatant, and they increase permeability of CaCO2 cell monolayers to Lucifer yellow when presented to the basolateral aspect of these cells. These permeability changes are inhibited by treatment of the cells with peptide permeability inhibitors of the invention (FIGS. 5A, 5B, 6A, 6B, 7A, 7B, 8A and 8B). The inventors have also discovered that specific peptides within the PTG mixture are capable of crossing epithelial cell monolayers in vitro, and that this peptide specific mechanism can be inhibited by peptide permeability inhibitors of the invention (FIGS. 3 and 4).

[2] = system: CaCO2 cells; test: Lucifer yellow permeability of CaCO2 cells exposed basolaterally to PBMC culture supernatants; type: cell-based; conditions: donors 00022, 00023, 00064, 00065; for Effect on baseline permeability to Lucifer yellow: control and untreated PBMC supernatant, measured after 72 hours; for Effect on permeability changes induced by LPS treated PBMC supernatant / Effect on permeability changes induced by PTG treated PBMC supernatant: Lucifer yellow measured after 72 hours
Experimental: After formation of tight junctions CaCO2 cells were exposed basolaterally to control supernatant (control), untreated PBMC supernatant (PBMC sup), LPS treated PBMC supernatant (PBMC-LPS) and PTG treated PBMC supernatant (PBMC-PTG). Lucifer yellow permeability was measured after 72 hours (day 3).
After formation of tight junctions CaCO2 cells were exposed basolaterally to PBMC supernatants as described above. […]
as §1

[3] = system: PBMCs; test: Cytokine expression in PBMCs treated with PTG or LPS (ELISA); type: cell-based, human; conditions: PTG 1 mg/ml or LPS 1 μg/ml
Experimental: PBMCs were suspended in RPMI medium supplemented with 5% heat inactivated human AB serum, and 2×10^5 cells were plated in each well of a 96 well plate. Cells were incubated at 37° C. with PTG (1 mg/ml) or LPS (1 μg/ml) in the presence or absence of test compounds being examined for the ability to suppress cytokine production. Supernatant samples were harvested following treatment, and cytokines were assayed by ELISA (R&D Systems).

[4] = system: intestinal tissue; conditions: ex vivo human tissue and mice; background section; cited from earlier work
[5] = inhibitor added apically after 48 hours (day 2)
[6] = inhibitor added apically on day 0

FITC-C6-PYPQPQLPY ({FITC-C6}-PYPQPQLPY) [gliadin peptide, FITC-labelled, reference compound]
Permeability of the monolayer ([1]; FIG. 4, apical exposure of the monolayer to the gliadin peptide): increase in permeability

GGVLVQPG [SEQ ID NO:1]
Effect on increase in permeability to gliadin peptide PYPQPQLPY (SEQ ID NO:163) ([1]; FIG. 3, apical exposure to gliadin peptide, apical treatment with inhibitor): blocked
Effect on increase in permeability induced by gliadin peptide ([1]; FIG. 4, apical exposure to FITC-C6-PYPQPQLPY, 13-mer gliadin peptide SEQ ID NO:164 named in legend): blocked
Effect on baseline permeability to Lucifer yellow [2, 5]: abolished
Effect on baseline permeability to Lucifer yellow [2, 6]: abolished
Effect on permeability changes induced by LPS treated PBMC supernatant [2, 5]: significantly reduced
Effect on permeability changes induced by PTG treated PBMC supernatant [2, 5]: significantly reduced
Effect on permeability changes induced by LPS treated PBMC supernatant [2, 6]: no significant effect
Effect on permeability changes induced by PTG treated PBMC supernatant [2, 6]: no significant effect
Effect on expression of IL-6, IL-8, MIP-1α and Gro-α induced by LPS and PTG [3]: not reduced
Effect on increased expression of GM-CSF and IL-16 induced by LPS and PTG [3]: inhibited
Gliadin induced reduction in intestinal Rt (resistance) [4]: inhibits
Peak of F-actin increment induced by gliadin [4]: blocks

PYPQPQLPY (listed as Triticum sp.) [SEQ ID NO:163, gliadin peptide]
Permeability of the monolayer to the gliadin peptide ([1]; FIG. 3, apical exposure of the monolayer to the gliadin peptide): increase in permeability
